In US12398132B2, “Derivatives of 4-(imidazo[1,2-a]pyridin-3-yl)-n-(pyridinyl)pyrimidin-2-amine as therapeutic agents” (AUCENTRA THERAPEUTICS PTY LTD, priority 2019, dated 2025):
Substitutions are numbered along the chain they refer to.

Legend:
CDK6/D3 = CDK6/D3 (Homo sapiens, UniProt Q00534); experiment: ADP Glo kinase assay, CDK6/D3; format: biochemical; conditions: CDK6D3; for Ki: apparent Ki calculated from Km (ATP) and IC50, read-out: CDK inhibition Ki; for remaining activity at 1 µM: compound at 1 μM (values marked *), read-out: residual enzymatic activity (%) at 1 μM*
Protocol: (§1) Inhibition of FLT3(WT), FLT3(ITD) and FLT3(D835Y) and CDKs were determined using ADP Glo Kinase assays (Promega Corporation, Madison, WI, USA). […] Similarly, kinase reaction for CDK4/D1 and CDK6/D3 was performed with reaction buffer (40 nM Tris base pH 7.5, 20 mM MgCl2, 0.4 mM DTT), 0.1 mg/ml BSA and RB-CTF substrate (retinoblastoma protein1 C-terminal fraction). For CDK9/CyclinT1, the kinase reaction was performed with the standard assay buffer and Kinase Dilution Buffer and RBER-IRStide substrate. Half-maximal inhibition (IC50) values were calculated using a 4-parameter logistic non-linear regression model with Graphpad prism (Version 6.0). Apparent inhibition constants (Ki) values were calculated from Km (ATP) and IC50 values for the respective kinases.

CDK1B [1] = target: T1, CDK1B (Homo sapiens, UniProt P06493); experiment: biochemical
CDK7HMAT1 [2] = target: T2, CDK7HMAT1 (Homo sapiens, UniProt P50613); experiment: biochemical;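 further: kinase activity measured with an ADP-Glo luminescent kinase assay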
MV-4-11 = experiment: Proliferation assay (resazurin/MTT), MV-4-11; format: cell-based; conditions: Homo sapiens, MV4-11, read-out: 72 h Growth inhibition GI50, MV-4-11 cells
CDK9/CyclinT1 = CDK9/CyclinT1 (Homo sapiens, UniProt P50750); experiment: ADP Glo kinase assay, CDK9/CyclinT1; format: biochemical; conditions: CDK9T1; apparent Ki calculated from Km (ATP) and IC50; read-out: CDK inhibition Ki
Protocol: as §1

CDK4/D1 = CDK4/D1 (Homo sapiens, UniProt P11802); experiment: ADP Glo kinase assay, CDK4/D1; format: biochemical; conditions: CDK4D1; for Ki: apparent Ki calculated from Km (ATP) and IC50, read-out: CDK inhibition Ki; for remaining activity at 1 µM: compound at 1 μM (values marked *), read-out: residual enzymatic activity (%) at 1 μM*
U937 = experiment: Proliferation assay (resazurin/MTT), U937; format: cell-based; conditions: Homo sapiens, U-937, read-out: 72 h Growth inhibition GI50, U937 cells
CDK2E1 [3] = target: T3, CDK2E1 (Homo sapiens, UniProt P24941); conditions: 1 µM
FLT3(D835Y) = target: T4, FLT3(D835Y) (Homo sapiens, UniProt P36888, D835Y); experiment: ADP Glo kinase assay, FLT3(D835Y); format: biochemical; conditions: apparent Ki calculated from Km (ATP) and IC50, read-out: FLT3 inhibition Ki
T4 sequence (P36888 27-993 D835Y): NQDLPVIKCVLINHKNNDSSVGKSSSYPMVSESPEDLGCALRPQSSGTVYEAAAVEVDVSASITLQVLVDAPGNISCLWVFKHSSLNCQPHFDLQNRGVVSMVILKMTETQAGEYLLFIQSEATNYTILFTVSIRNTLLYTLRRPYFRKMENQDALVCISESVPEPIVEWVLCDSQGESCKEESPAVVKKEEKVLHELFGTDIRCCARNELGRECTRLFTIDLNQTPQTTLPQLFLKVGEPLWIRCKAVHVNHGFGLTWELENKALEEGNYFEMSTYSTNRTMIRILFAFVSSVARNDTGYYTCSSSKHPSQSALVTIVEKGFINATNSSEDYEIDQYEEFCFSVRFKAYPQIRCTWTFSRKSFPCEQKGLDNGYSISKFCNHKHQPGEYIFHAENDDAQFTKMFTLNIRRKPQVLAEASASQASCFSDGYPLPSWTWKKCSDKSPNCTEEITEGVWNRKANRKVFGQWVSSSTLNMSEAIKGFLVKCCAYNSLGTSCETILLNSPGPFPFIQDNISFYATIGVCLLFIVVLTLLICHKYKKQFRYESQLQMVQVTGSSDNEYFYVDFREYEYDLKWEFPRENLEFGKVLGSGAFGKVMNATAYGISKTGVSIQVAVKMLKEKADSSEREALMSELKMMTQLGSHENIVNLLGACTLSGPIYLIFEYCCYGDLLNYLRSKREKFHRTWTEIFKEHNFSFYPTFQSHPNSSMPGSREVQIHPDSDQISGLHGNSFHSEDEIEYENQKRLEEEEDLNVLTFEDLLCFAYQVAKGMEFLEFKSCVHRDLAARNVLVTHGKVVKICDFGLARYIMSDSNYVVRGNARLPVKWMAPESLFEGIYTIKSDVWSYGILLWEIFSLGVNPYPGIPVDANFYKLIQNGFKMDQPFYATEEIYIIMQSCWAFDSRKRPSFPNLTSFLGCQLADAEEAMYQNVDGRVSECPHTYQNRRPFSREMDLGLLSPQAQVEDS
Protocol: (§2) Inhibition of FLT3(WT), FLT3(ITD) and FLT3(D835Y) and CDKs were determined using ADP Glo Kinase assays (Promega Corporation, Madison, WI, USA). […] The kinase reactions are run for an optimised time period (FLT3-WT: 120 min, FLT3-ITD: 80 min, FLT3-D835Y: 100 min) at room temperature and then the reaction was stopped by adding 5 μL of ADP Glo reagent. […] Positive and negative controls were performed in 0.5% DMSO in the presence and absence of each FLT3 kinase, respectively. […] Half-maximal inhibition (IC50) values were calculated using a 4-parameter logistic non-linear regression model with Graphpad prism (Version 6.0). Apparent inhibition constants (Ki) values were calculated from Km (ATP) and IC50 values for the respective kinases.

FLT3(WT) = target: T5, FLT3(WT) (Homo sapiens, UniProt P36888); experiment: ADP Glo kinase assay, FLT3(WT); format: biochemical; conditions: compound at 1 μM, read-out: residual enzymatic activity (%) at 1 μM
T5 sequence (P36888 27-993): T4 sequence (P36888 27-993 D835Y) with Y809D
Protocol: as §2

FLT3(ITD) = target: T6, FLT3(ITD) (Homo sapiens, UniProt P36888); experiment: ADP Glo kinase assay, FLT3(ITD); format: biochemical; conditions: apparent Ki calculated from Km (ATP) and IC50, read-out: FLT3 inhibition Ki
T6 sequence (P36888 1-993): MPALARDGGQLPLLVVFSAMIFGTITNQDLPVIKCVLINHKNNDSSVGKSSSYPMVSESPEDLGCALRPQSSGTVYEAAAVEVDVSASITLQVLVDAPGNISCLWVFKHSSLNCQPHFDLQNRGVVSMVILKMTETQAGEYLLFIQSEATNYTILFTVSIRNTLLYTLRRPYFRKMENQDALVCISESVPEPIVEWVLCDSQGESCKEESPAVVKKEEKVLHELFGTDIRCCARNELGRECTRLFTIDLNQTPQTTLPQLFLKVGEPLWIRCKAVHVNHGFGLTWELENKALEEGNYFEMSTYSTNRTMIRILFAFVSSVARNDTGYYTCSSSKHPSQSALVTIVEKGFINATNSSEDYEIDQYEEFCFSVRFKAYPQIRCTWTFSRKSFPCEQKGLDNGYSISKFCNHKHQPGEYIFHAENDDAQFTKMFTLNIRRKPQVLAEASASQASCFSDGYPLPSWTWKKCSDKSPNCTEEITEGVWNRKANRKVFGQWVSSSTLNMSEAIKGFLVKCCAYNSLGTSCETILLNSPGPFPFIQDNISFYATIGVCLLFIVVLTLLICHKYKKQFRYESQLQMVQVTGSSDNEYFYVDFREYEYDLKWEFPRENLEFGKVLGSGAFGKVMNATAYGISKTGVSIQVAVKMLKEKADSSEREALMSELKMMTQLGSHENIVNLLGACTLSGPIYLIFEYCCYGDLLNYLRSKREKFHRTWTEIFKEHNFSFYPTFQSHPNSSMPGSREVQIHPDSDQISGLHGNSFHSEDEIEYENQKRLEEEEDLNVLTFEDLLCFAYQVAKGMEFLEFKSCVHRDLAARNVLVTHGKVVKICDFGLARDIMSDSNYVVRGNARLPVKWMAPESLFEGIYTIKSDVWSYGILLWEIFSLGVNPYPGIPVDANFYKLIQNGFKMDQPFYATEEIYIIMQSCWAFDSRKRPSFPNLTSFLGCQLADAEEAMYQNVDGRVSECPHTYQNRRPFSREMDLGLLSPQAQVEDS
Protocol: as §2

CDK2E1 [4] = target: T3, CDK2E1; experiment: biochemical
CDK7HMAT1 [5] = target: T2, CDK7HMAT1; conditions: 10 µM
CDK1B [6] = target: T1, CDK1B; conditions: 1 µM

T2 sequence (P50613 whole entry): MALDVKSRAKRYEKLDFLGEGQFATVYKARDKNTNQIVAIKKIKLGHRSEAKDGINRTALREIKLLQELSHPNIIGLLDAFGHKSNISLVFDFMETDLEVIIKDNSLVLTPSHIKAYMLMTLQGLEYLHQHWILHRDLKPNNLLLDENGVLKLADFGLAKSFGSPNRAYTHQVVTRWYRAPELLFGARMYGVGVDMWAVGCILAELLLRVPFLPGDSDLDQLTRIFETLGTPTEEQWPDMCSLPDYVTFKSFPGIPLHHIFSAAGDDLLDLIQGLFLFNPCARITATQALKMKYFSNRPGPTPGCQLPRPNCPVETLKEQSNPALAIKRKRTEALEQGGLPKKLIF
T2 sequence (P51946 whole entry partner): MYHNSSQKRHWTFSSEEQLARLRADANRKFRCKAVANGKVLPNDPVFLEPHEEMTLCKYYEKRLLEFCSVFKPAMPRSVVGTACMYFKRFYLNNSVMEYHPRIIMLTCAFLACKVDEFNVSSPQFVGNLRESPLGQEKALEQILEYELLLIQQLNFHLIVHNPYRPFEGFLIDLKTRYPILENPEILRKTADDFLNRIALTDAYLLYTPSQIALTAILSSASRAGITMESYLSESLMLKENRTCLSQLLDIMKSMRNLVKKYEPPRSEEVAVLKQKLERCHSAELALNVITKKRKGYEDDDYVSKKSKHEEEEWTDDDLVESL
T2 sequence (P51948 whole entry partner): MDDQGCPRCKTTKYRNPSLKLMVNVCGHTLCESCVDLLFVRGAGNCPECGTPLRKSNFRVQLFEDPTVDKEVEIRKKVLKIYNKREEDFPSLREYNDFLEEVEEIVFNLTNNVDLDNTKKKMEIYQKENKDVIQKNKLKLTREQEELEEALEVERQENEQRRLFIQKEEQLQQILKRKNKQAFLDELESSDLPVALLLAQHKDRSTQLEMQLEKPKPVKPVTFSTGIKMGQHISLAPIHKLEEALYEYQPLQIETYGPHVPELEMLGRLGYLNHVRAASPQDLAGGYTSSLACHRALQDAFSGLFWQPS
T1 sequence (P06493 whole entry): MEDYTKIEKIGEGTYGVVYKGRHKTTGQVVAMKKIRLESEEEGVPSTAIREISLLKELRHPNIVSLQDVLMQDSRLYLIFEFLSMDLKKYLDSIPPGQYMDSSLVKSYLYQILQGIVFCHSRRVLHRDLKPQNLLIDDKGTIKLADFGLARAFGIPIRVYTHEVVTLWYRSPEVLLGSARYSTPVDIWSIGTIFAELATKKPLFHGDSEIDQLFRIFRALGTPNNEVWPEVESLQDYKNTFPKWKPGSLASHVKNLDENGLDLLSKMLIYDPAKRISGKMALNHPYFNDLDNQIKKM
T1 sequence (P14635 whole entry partner): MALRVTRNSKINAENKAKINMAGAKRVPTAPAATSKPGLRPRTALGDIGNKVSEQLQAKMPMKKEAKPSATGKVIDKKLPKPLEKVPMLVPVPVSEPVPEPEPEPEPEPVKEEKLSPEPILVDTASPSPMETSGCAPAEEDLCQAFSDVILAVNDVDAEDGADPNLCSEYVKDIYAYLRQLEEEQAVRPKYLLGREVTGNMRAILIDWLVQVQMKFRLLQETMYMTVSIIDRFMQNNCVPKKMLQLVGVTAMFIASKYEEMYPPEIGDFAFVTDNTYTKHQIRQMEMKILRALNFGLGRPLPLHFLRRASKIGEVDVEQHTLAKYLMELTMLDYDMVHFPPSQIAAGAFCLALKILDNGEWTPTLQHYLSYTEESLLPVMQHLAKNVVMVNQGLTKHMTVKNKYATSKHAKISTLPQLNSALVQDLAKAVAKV
Sequence of CDK6/D3 (Q00534 whole entry, species assumed): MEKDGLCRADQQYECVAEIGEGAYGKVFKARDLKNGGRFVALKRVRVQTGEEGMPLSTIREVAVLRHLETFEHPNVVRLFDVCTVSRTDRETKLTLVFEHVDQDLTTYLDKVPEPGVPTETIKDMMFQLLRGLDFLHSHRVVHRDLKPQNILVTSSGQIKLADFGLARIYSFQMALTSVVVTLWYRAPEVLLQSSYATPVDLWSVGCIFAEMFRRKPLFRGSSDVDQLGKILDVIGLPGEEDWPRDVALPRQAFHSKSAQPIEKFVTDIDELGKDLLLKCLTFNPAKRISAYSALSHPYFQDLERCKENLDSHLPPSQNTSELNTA
Sequence of CDK6/D3 (P30281 whole entry partner, species assumed): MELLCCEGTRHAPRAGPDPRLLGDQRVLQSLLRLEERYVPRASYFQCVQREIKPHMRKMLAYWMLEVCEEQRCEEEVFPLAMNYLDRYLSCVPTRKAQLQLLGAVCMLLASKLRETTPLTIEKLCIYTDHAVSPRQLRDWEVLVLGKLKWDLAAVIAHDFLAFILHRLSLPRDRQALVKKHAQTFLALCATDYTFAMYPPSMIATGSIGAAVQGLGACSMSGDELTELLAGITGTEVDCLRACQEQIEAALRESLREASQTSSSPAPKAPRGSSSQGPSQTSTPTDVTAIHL
Sequence of CDK4/D1 (P11802 whole entry, species assumed): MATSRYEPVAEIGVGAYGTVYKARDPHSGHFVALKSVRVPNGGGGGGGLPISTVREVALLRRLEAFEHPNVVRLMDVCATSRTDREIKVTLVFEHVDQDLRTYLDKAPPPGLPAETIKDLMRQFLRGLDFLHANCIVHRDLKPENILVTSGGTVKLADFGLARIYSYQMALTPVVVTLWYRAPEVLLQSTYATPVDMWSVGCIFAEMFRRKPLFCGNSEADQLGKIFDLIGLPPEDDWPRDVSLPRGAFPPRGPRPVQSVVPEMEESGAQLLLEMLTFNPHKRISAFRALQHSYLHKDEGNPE
Sequence of CDK4/D1 (P24385 whole entry partner, species assumed): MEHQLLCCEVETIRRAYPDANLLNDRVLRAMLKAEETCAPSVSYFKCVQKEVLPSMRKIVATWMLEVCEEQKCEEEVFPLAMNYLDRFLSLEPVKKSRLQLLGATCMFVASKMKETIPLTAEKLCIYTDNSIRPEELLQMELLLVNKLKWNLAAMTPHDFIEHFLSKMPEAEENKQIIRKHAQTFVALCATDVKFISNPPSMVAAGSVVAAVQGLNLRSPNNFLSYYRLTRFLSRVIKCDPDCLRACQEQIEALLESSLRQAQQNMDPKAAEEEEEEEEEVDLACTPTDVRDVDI
Sequence of CDK9/CyclinT1 (P50750 whole entry, species assumed): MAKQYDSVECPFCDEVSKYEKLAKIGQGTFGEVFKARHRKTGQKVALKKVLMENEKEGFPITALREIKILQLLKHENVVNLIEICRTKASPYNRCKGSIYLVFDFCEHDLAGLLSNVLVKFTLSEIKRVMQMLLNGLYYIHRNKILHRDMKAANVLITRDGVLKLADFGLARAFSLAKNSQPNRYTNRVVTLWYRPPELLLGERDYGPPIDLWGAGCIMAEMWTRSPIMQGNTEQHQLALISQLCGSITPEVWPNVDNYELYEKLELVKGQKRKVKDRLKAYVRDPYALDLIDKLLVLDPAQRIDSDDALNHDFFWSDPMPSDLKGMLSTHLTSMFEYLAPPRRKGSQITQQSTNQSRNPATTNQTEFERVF
Sequence of CDK9/CyclinT1 (O60563 whole entry partner, species assumed): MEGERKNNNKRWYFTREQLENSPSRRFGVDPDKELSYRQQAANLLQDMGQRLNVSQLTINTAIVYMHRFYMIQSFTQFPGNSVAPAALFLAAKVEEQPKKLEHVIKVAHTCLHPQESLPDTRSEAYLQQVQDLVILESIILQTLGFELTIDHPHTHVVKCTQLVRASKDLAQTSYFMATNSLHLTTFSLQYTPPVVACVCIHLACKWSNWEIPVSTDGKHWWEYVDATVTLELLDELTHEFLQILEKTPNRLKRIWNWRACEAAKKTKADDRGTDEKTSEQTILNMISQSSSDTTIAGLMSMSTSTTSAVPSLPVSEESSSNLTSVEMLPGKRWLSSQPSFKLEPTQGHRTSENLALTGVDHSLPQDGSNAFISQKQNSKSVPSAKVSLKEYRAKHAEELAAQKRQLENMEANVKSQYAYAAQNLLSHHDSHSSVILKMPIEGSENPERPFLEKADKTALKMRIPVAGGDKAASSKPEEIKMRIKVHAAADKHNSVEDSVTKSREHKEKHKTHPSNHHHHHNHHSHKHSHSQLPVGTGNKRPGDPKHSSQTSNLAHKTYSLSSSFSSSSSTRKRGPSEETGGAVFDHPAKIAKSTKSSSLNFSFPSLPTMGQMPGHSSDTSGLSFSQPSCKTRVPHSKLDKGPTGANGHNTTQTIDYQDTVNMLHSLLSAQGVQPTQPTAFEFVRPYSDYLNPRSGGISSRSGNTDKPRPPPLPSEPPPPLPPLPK

Compound	Ki (CDK6/D3) [nM]	Ki (CDK1B [1]) [nM]	Ki (CDK7HMAT1 [2]) [nM]	GI50 (MV-4-11) [nM]	Ki (CDK9/CyclinT1) [nM]	Ki (CDK4/D1) [nM]	GI50 (U937) [nM]	activity (CDK2E1 [3]) [%]	Ki (FLT3(D835Y)) [nM]	remaining activity at 1 µM (FLT3(WT)) [%]	Ki (FLT3(ITD)) [nM]	Ki (CDK2E1 [4]) [nM]	activity (CDK7HMAT1 [5]) [%]	remaining activity at 10 µM (CDK6/D3; compound at 10 μM, read-out: residual enzymatic activity (%) at 10 μM) [%]	remaining activity at 1 µM (CDK6/D3) [%]	activity (CDK1B [6]) [%]	remaining activity at 1 µM (CDK4/D1) [%]
c1ccn2c(-c3ccnc(Nc4ccc(N5CCNCC5)cn4)n3)cnc2c1 [Cmpd 1, 4-(Imidazo[1,2-a]pyridin-3-yl)-N-(5-(piperazin-1-yl)pyridin-2-yl)pyrimidin-2-amine]	900	1340	1190	9	37	116	497	69	–	–	–	–	–	–	–	–	–
CN1CCN(c2ccc(Nc3nccc(-c4cnc5ccccn45)n3)nc2)CC1 [Cmpd 2, 4-(Imidazo[1,2-a]pyridin-3-yl)-N-(5-(4-methylpiperazin-1-yl)pyridin-2-yl)pyrimidin-2-amine]	1050	1990	1700	35	85	155	504	–	49	33	235	–	–	–	–	–	–
c1ccc(Nc2nccc(-c3cnc4ccccn34)n2)nc1 [Cmpd 7, 4-(Imidazo[1,2-a]pyridin-3-yl)-N-(pyridin-2-yl)pyrimidin-2-amine]	370	148	–	124	41	218	512	–	17	34	15	84	43	–	–	–	–
CC(=O)N1CCN(c2ccc(Nc3ncc(F)c(-c4cnc5ccc(C)cn45)n3)nc2)CC1 [Cmpd 31, 1-(4-(6-((5-Fluoro-4-(6-methylimidazo[1,2-a]pyridin-3-yl)pyrimidin-2-yl)amino)pyridin-3-yl)piperazin-1-yl)ethan-1-one]	–	–	–	5	308	–	19100	–	–	–	–	301	–	–	38	50	37
Fc1ccc(Nc2nccc(-c3cnc4ccccn34)n2)nc1 [Cmpd 51, N-(5-Fluoropyridin-2-yl)-4-(imidazo[1,2-a]pyridin-3-yl)pyrimidin-2-amine]	–	–	–	72	–	–	350	–	–	–	–	116	–	–	–	–	–
CN1CCN(c2ccc(Nc3nccc(-c4cnc5ccc(-c6cn[nH]c6)cn45)n3)nc2)CC1 [Cmpd 67, 4-(6-(1H-Pyrazol-4-yl)imidazo[1,2-a]pyridin-3-yl)-N-(5-(4-methylpiperazin-1-yl)pyridin-2-yl)pyrimidin-2-amine]	–	–	–	17	41	–	18	–	–	–	11	197	–	–	–	–	–

Continued by falling GI50 (MV-4-11), values first:

Ki (CDK6/D3) [nM]	Ki (CDK1B [1]) [nM]	Ki (CDK7HMAT1 [2]) [nM]	GI50 (MV-4-11) [nM]	Ki (CDK9/CyclinT1) [nM]	Ki (CDK4/D1) [nM]	GI50 (U937) [nM]	activity (CDK2E1 [3]) [%]	Ki (FLT3(D835Y)) [nM]	remaining activity at 1 µM (FLT3(WT)) [%]	Ki (FLT3(ITD)) [nM]	Ki (CDK2E1 [4]) [nM]	activity (CDK7HMAT1 [5]) [%]	remaining activity at 10 µM (CDK6/D3; compound at 10 μM, read-out: residual enzymatic activity (%) at 10 μM) [%]	remaining activity at 1 µM (CDK6/D3) [%]	activity (CDK1B [6]) [%]	remaining activity at 1 µM (CDK4/D1) [%]	Compound
–	–	186	5	71	–	765	40	–	–	–	–	–	–	52	95	75	CC(=O)N1CCN(c2ccc(Nc3nccc(-c4cnc5ccc(-c6ccoc6)cn45)n3)nc2)CC1 [Cmpd 25, 1-(4-(6-((4-(6-(Furan-3-yl)imidazo[1,2-a]pyridin-3-yl)pyrimidin-2-yl)amino)pyridin-3-yl)piperazin-1-yl)ethan-1-one]
–	> 500	148	2	427	340	690	52	–	–	–	–	–	76	–	–	–	CC(=O)N1CCN(c2ccc(Nc3nccc(-c4cnc5ccc(-c6cccs6)cn45)n3)nc2)CC1 [Cmpd 17, 1-(4-(6-((4-(6-(Thiophen-2-yl)imidazo[1,2-a]pyridin-3-yl)pyrimidin-2-yl)amino)pyridin-3-yl)piperazin-1-yl)ethan-1-one]
